# Measurements: US10844080B2, “Compositions and methods for inhibiting arginase activity” (CALITHERA BIOSCIENCES, INC., priority 2015, dated 2020)
# System: Lewis Lung Carcinoma cells
# Test: Lewis Lung Carcinoma efficacy study
# Assay type: in vivo
# Settings: single agent, dosed orally twice daily at 50, 100 or 200 mg/kg; female C57.Bl/6 mice implanted subcutaneously with Lewis Lung Carcinoma cells; relative to control
# Method: Female C57.Bl/6 mice (n=40) were implanted subcutaneously with 1×10^6 Lewis Lung Carcinoma cells suspended in PBS. The day following implantation, mice were randomized into 4 groups of n=10 mice to receive the following treatments dosed orally twice daily until study end: 1) Vehicle (water); 2) Compound 10 at 50 mg/kg formulated in water; 3) Compound 10 at 100 mg/kg formulated in water; or 4) Compound 10 at 200 mg/kg formulated in water. Tumors were measured three times per week with digital calipers and tumor volumes calculated with the following formula: tumor volume (mm^3)=(a×b^2/2) where ‘b’ is the smallest diameter and ‘a’ is the largest perpendicular diameter. ***P-value<0.001, ****P-value<0.0001 (Two-sided T-test).
smiles,measurement,value
"C[C@H](N)C(=O)N1C[C@H](CCCB(O)O)[C@](N)(C(=O)O)C1 [Compound 10, (3R,4S)-3-amino-1-((S)-2-aminopropanoyl)-4-(3-boronopropyl)pyrrolidine-3-carboxylic acid]",tumor volume over time (tumor growth),slows tumor growth relative to control
